From ChEMBL document CHEMBL1128977, “Antioxidant properties of nitrocaffeic acids” (Bioorg Med Chem Lett, 1996) come the findings set out here.

As usually defined, the IC50 is the point on the concentration scale where inhibition reaches its midpoint. Usually Inhibition stands for the drop in the measured response relative to a control, in per cent.

Data set [1] in a line: Compound was evaluated for hydroxyl radical (OH) scavenging activity.
For data set [2], the target named is Xanthine dehydrogenase/oxidase (Homo sapiens, UniProt P47989). In words: Compound was evaluated for inhibition of xanthine oxidase. More on the design: concentration or dose not given beside the values.
Data set [3] can be described thus: Superoxide anion (O2-) scavenging activity.

Xanthine dehydrogenase/oxidase, sequence (P47989 whole entry): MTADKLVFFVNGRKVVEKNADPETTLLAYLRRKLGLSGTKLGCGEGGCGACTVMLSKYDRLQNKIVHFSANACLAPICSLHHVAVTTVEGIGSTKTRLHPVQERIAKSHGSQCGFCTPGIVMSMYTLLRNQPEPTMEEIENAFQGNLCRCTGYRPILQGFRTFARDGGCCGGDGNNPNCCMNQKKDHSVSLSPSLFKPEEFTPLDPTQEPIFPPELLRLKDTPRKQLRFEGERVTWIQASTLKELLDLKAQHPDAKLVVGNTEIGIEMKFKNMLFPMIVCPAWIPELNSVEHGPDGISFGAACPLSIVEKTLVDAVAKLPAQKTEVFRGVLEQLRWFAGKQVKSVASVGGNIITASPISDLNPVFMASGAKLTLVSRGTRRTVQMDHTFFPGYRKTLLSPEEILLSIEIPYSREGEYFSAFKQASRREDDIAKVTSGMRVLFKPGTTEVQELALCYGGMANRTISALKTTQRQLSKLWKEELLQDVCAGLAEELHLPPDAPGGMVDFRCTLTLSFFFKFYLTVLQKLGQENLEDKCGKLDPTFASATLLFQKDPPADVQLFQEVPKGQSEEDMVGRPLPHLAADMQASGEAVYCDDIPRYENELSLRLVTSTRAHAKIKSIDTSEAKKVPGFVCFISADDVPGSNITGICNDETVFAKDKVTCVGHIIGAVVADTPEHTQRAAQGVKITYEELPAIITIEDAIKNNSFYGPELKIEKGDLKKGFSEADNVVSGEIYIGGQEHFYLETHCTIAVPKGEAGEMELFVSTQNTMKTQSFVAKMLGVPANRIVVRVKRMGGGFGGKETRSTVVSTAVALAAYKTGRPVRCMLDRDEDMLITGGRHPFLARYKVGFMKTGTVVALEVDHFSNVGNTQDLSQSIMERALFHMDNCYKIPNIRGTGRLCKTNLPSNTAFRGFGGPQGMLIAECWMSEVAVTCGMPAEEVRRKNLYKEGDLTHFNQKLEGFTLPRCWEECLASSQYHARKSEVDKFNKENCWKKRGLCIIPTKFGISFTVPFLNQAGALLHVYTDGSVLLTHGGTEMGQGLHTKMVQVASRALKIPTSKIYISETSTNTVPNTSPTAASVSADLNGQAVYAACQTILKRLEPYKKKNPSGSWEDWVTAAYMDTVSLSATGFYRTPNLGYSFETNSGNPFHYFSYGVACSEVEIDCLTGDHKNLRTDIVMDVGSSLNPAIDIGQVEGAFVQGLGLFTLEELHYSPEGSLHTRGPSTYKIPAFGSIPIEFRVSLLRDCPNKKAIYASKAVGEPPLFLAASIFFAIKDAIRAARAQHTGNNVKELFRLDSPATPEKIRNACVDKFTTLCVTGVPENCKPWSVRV

Regarding `O=[N+]([O-])c1cccc(O)c1O`, the results for the IC50 in data set [1] and in data set [3] were 180 µM and 250 µM, respectively. Also, in data set [2], the Inhibition was determined as 5%.

For `O=C(O)/C=C/c1cc(O)c(O)c([N+](=O)[O-])c1`, the IC50 in data set [1] is 400 µM; in data set [3], 185 µM. Further, in data set [2], the Inhibition is 70%.

`O=C(O)/C=C/c1ccc(O)c(O)c1` [CAFFEIC ACID]: the Inhibition in data set [2] is recorded as 18%. In data set [3], this compound registered an IC50 of 95 µM.

With `O=C(O)/C=C/c1cc(O)c(O)cc1[N+](=O)[O-]`, the IC50 in data set [1] was determined as 250 µM; in data set [3], 150 µM. In addition, the Inhibition in data set [2] came to 36%.

On to `CC(=O)C(Cc1cc(O)c(O)c([N+](=O)[O-])c1)C(C)=O`, for which the half-maximal inhibitory concentration (IC50) in data set [1] is 300 µM; in data set [3], 500 µM.

Regarding `O=C(O)/C=C/c1ccc(O)c(O)c1[N+](=O)[O-]`, the half-inhibitory concentration (IC50) was determined as 425 µM in data set [1] and 35 µM in data set [3]. In data set [2], this compound displayed an Inhibition of 61%.

With `O=[N+]([O-])c1ccc(O)c(O)c1` [4-Nitrocatechol], the IC50 in data set [1] turned out to be 130 µM; in data set [3], 250 µM. Also, the Inhibition in data set [2] stood at 9%.

On to `Oc1ccccc1O` [CATECHOL], for which the Inhibition in data set [2] was found to be 5%. 30 µM corresponded to half-maximal inhibition in data set [3] (IC50).

On to `O=[N+]([O-])c1cc(O)ccc1O`, for which the IC50 was 85 µM in data set [1] and 1000 µM in data set [3]. In data set [2], this compound gave an Inhibition of 12%.
